Read-outs that look alike come from different tables or passages of the source.
Legend:
DLD1 tumors = test: Subcutaneous xenograft tumor growth; type: in vivo, Swiss nu/nu mice
Experimental: All procedures including animal use were performed in accordance with the Institutional Ethical Committee of Animal Care in Geneva and the Swiss Cantonal Veterinary Office (Authorization number GE‐136‐19). Briefly, female and male Swiss nu/nu mice aged 6–8 weeks were obtained from Charles River (Écully, France). For subcutaneous xenografts mice were inoculated in the left flank with 5x10^6 DLD1 or SW620 cells suspended in 100 µL of cell culture medium, supplemented with 1% FBS.
Drugs were administered through oral gavage based on average body weight of the males (100 µL/mouse) and females (80 µL/mouse) at various concentrations, see Tables S10 and S11.
Solution A: step (1) 30% PEG 400 + 5% propylene glycol + 0.5% Tween 80 and (2) 64.5% sterile H2O. Solution B: step (1) 10% DMSO, (2) 30% PEG 300 + 5% Tween 80 and (3) 55% sterile H2O. […] FOLFOX was administered as 6 mg/kg oxaliplatin two hours before administration of 90 mg/kg leucovorin and 50 mg/kg (DLD1) or 25 mg/kg (SW620) 5‐fluorouracil at day 1 and a repeat of 5‐fluorouracil dosing on day 2.
The Bliss independence model can be used to evaluate the drug interaction potential of a drug mixture. […] The model is based on the probability theory and requires the drug activity of each drug at the selected dose to predict the inhibition rate (IR) at additive doses.

[1] = Pharmacokinetics, dried blood spot LC-MS/MS, mice with SW620 tumors; type: in vivo; settings: for Tmax / AUC(0-t) / Cmax: Swiss Nu/nu, mouse, whole blood (dried blood spot), po, regorafenib 30, vemurafenib 75, GDC-0994 10 mg/kg; for AUC(0-t) / Cmax: whole blood, mean ± SD; for AUC(0-t): oral, read-out: AUC0-24h; for increase of AUC as part of the ODC vs single-drug treatment: mice bearing SW620 tumors, AUC0-24h
Experimental: The pharmacokinetic (PK) study was performed using the dried blood spot method. Mice were treated with CTRL, ODCs, and corresponding monotherapies as described above. To determine the disposition in blood in the first 24h, blood samples (5 µL/mouse) were collected from the tail vein (n = 4 mice) at 2h, 4h, 8h, and 24h time points and transferred onto paper (a filter paper 903 protein saver card from Whatman (MA, USA)). A disk with the entire spot was punched from the paper card and transferred to the HPLC vial tube. Hundred µL of MeOH containing a mix of internal standards was added, and the tube was vortex‐mixed for about 1 min before injecting 10 µL into the LC‐MS/MS system. The LC‐MS/MS system consisted of an API 4,000 triple quadrupole mass spectrometer (AB sciex, Concord, ON, Canada) controlled by analyst 1.6.1 software. The mass spectrometer was operated in the multiple reaction monitoring (MRM) mode with positive electrospray ionization. The instrument was coupled with an Agilent series 1100 (Waldbronn, Germany) LC system. Chromatography was performed on a Phenomenex Kinetex C18 analytical column (50 mm x 2.1 mm, 2.6 um; Torrance, CA, USA). The flow rate was 0.5 mL/min using gradient elution conditions. The method was fully validated before application to this pharmacokinetic study.

[2] = Serum and intratumor drug concentration at experimental endpoint, SW620 model; type: in vivo, mice; settings: for concentration at 1 h / Kp at 1 h: Swiss Nu/nu, mouse, oral; for concentration at 1 h: 1h post-treatment at endpoint (day 19); for Kp at 1 h: tumor vs serum, read-out: ratio tumor vs serum; for Kp at 1 h / ratio ODC vs single drug: SW620 model
Experimental: At the experimental endpoint, plasma and tumors were collected 1h post‐treatment and part of the tumor tissue was used to determine the intratumor drug concentrations. Plasma and tumor samples were analyzed using the same LC‐MS/MS method used for drug determination in DBS. Before analysis, tumor tissues were homogenized in a 1 mL mixture of water/acetonitrile (30/70). Hundred uL of homogenates were transferred into new tubes and 50 µL of acetonitrile, as well as 50 µL of a mix of internal standards in MeOH were added. Tubes were vortexed and centrifuged for 10 min at 9,000 rpm. The supernatant (100 µL) was evaporated under nitrogen and reconstituted in 100 µL of acetonitrile with 0.1% formic acid/water with 0.1% formic acid (30/70). 10 µL was then injected into the LC‐MS/MS system. Plasma samples were spotted onto the same paper used for whole blood analysis and were extracted and analyzed using the same methods as used for DBS.

[3] = 0-24h, oral, cited from earlier work
SW620 cells = test: CellTiter-Glo metabolic ATP activity assay, 2D culture; type: cell-based, human; settings: low-dose single drug (hormetic dose effect)
Experimental: Drugs were dissolved in DMSO and stored at −80, and aliquots were thawn prior to each use. Drugs were dissolved at concentrations resulting in in vitro experimental conditions 0.15% DMSO maximum in the culture medium. […] The 48‐hour retreatment was performed by adding another volume of media containing a 1x concentration of drugs to not affect the final concentration in the wells.
Drug treatment activity in 2D and 3D cultures was measured using the CellTiter‐Glo® cell metabolic activity (ATP) assays (G7572 and G9683, Promega, Madison, WI, USA), according to the manufacturer`s instructions. Assay bioluminescence was detected using the BioTek Cytation 3 and corresponding Gen5 Image software version 3.04 at standard settings.
The next step is the drug combination screening in Search 1 (11 drugs in 155 combinations) according to the OACD resolution IV matrix and performed in the CRC and the nonmalignant CCD841CoN cell simultaneously. The resulting output of the drug combination activity was measured in cell metabolic activity (ATP levels, % CTRL) to represent cell viability and consisted of the average of technical triplicate values. The experimental data points are then used for step‐wise second‐order linear regression analysis by Matlab®. This model mathematically describes the relationship between the drug combination input and output activity of each possible two‐drug combination. […]

HCT116 cells = test: Tunneling nanotubule (TNT) quantification, F-actin/DAPI staining; type: cell-based, human
[4] = regorafenib 15 mg/kg, Exp 5, Day 16
[5] = regorafenib 30 mg/kg, Exp 2, Day 14
[6] = regorafenib 30 mg/kg, Exp 5, Day 16
[7] = regorafenib 50 mg/kg, Exp 3, Day 13
[8] = given as part of SW620-specific ODC
[9] = serum, as part of ODC, regorafenib 30, selumetinib 0.2, vemurafenib 75, GDC-0994 10 mg/kg, read-out: concentration serum
[10] = serum, single drug, regorafenib 30, selumetinib 0.2, vemurafenib 75, GDC-0994 10 mg/kg, read-out: concentration serum
[11] = tumor (SW620), as part of ODC, SW620 tumor, doses as E164, read-out: concentration tumor
[12] = tumor (SW620), single drug, SW620 tumor, doses as E164, read-out: concentration tumor
[13] = selumetinib 1 mg/kg, Exp 6, Day 18
[14] = selumetinib 5 mg/kg, Exp 5, Day 16
[15] = selumetinib 5 mg/kg, Exp 7, Day 25
[16] = selumetinib 10 mg/kg, Exp 5, Day 16
[17] = selumetinib 25 mg/kg, Exp 3, Day 13
[18] = vemurafenib 25 mg/kg, Exp 2, Day 14
[19] = vemurafenib 75 mg/kg b.i.d., Exp 3, Day 13
[20] = vemurafenib 75 mg/kg, Exp 2, Day 14
[21] = vemurafenib 75 mg/kg, Exp 5, Day 16
[22] = vemurafenib 75 mg/kg, Exp 7, Day 15
[23] = vemurafenib 150 mg/kg b.i.d., Exp 4, Day 16

Row | SMILES | Tmax [1, 8] [h] | AUC(0-t) [1, 8] [ng·h/mL] | Cmax [1, 8] [ng/mL] | Tmax ([1]; mono) [h] | AUC(0-t) ([1]; mono) [ng·h/mL] | Cmax ([1]; mono) [ng/mL] | increase of AUC as part of the ODC vs single-drug treatment [1] [x] | concentration at 1 h [2, 9] [ng/mL] | concentration at 1 h [2, 10] [ng/mL] | concentration at 1 h [2, 11] [ng/g] | concentration at 1 h [2, 12] [ng/g] | Kp at 1 h ([2]; as part of ODC) | Kp at 1 h ([2]; single drug) | ratio ODC vs single drug ([2]; serum) | ratio ODC vs single drug ([2]; tumor) | further results
1 | CNC(=O)c1cc(Oc2ccc(NC(=O)Nc3ccc(Cl)c(C(F)(F)F)c3)c(F)c2)ccn1 [regorafenib] | 4 | 22200 ± 1830 | 1610 ± 220 | 4 | 9860 ± 1930 | 710 ± 260 | 2.2 | 6600 ± 2800 | 2220 ± 70 | 1820 ± 770 | 1330 ± 230 | 0.28 | 0.6 | 2.97 | 1.37 | % CTRL (tumor volume) (DLD1 tumors; [4]): 87 75 34 % CTRL; Volume (DLD1 tumors; [4]): 559 479 214 mm^3; % CTRL (tumor volume) (DLD1 tumors; regorafenib 15 mg/kg, Exp 7, Day 15): 96 24 38 % CTRL; % CTRL (tumor volume) (DLD1 tumors; [5]): 85 46 20 % CTRL; Volume (DLD1 tumors; [5]): 594 320 143 mm^3; % CTRL (tumor volume) (DLD1 tumors; [6]): 63 56 25 % CTRL; Volume (DLD1 tumors; [6]): 404 358 160 mm^3; % CTRL (tumor volume) (DLD1 tumors; [7]): 135 76 29 % CTRL; Volume (DLD1 tumors; [7]): 465 261 99 mm^3; AUC ([3]; 160 mg/kg, 3 wk on/ 1 wk off, ref 12): 50260 ng·h/mL; AUC ([3]; 160 mg/kg, 3 wk on/ 1 wk off, ref 13): 58300 ng·h/mL
2 | Cn1cnc2c(F)c(Nc3ccc(Br)cc3Cl)c(C(=O)NOCCO)cc21 [selumetinib] | 2 | 890 ± 130 | 230 ± 80 | 2 | 770 ± 140 | 240 ± 80 | 1.2 | 280 ± 200 | 410 ± 350 | 220 ± 100 | 560 ± 90 | 0.77 | 1.39 | – | – | % CTRL (tumor volume) (DLD1 tumors; [13]): 74 29 12 % CTRL; Volume (DLD1 tumors; [13]): 366 142 58 mm^3; % CTRL (tumor volume) (DLD1 tumors; [14]): 37 39 20 % CTRL; Volume (DLD1 tumors; [14]): 237 234 125 mm^3; % CTRL (tumor volume) (DLD1 tumors; [15]): 67 50 25 % CTRL; Volume (DLD1 tumors; [15]): 408 223 79 mm^3; % CTRL (tumor volume) (DLD1 tumors; selumetinib 10 mg/kg, Exp 4, Day 16): 82 49 22 % CTRL; % CTRL (tumor volume) (DLD1 tumors; [16]): 33 18 8 % CTRL; Volume (DLD1 tumors; [16]): 213 117 52 mm^3; % CTRL (tumor volume) (DLD1 tumors; [17]): 49 33 13 % CTRL; Volume (DLD1 tumors; [17]): 168 112 46 mm^3; % CTRL (tumor volume) (DLD1 tumors; selumetinib 50 mg/kg, Exp 2, Day 14): 39 16 7 % CTRL
3 | CCCS(=O)(=O)Nc1ccc(F)c(C(=O)c2c[nH]c3ncc(-c4ccc(Cl)cc4)cc23)c1F [vemurafenib] | 4 | 48200 ± 5720 | 4710 ± 650 | 2 | 19400 ± 3250 | 2560 ± 640 | 2.5 | 1770 ± 770 | 1960 ± 1050 | 890 ± 530 | – | 0.5 | 0.48 | 0.90 | 0.95 | effect on cell viability (SW620 cells): increased cell viability; cells forming tunneling nanotubules (TNTs, > 10 µm) (HCT116 cells; single drug (CTRL 9.5%)): 14.0%; TNT length (HCT116 cells; single drug (CTRL 21 µm), nonsignificant): 32 µm; % CTRL (tumor volume) (DLD1 tumors; [18]): 80 33 19 % CTRL; Volume (DLD1 tumors; [18]): 562 231 133 mm^3; % CTRL (tumor volume) (DLD1 tumors; [19]): 113 88 39 % CTRL; Volume (DLD1 tumors; [19]): 388 304 136 mm^3; % CTRL (tumor volume) (DLD1 tumors; [20]): 87 46 23 % CTRL; Volume (DLD1 tumors; [20]): 612 319 160 mm^3; % CTRL (tumor volume) (DLD1 tumors; [21]): 94 31 14 % CTRL; Volume (DLD1 tumors; [21]): 600 200 89 mm^3; % CTRL (tumor volume) (DLD1 tumors; [22]): 123 69 24 % CTRL; Volume (DLD1 tumors; [22]): 619 347 123 mm^3; % CTRL (tumor volume) (DLD1 tumors; [23]): 105 64 28 % CTRL; Volume (DLD1 tumors; [23]): 587 354 159 mm^3; AUC ([3]; 960 mg/kg twice daily): 131000 ng·h/mL; AUC ([3]; 960 mg/kg twice daily, ref EPAR 002409): 21100 ng·h/mL
